# From ChEMBL document CHEMBL1770110, “Pyrimido[4,5-d]azepines as potent and selective 5-HT2C receptor agonists: design, synthesis, and evaluation of PF-3246799 as a treatment for urinary incontinence” (Bioorg Med Chem Lett, 2011)
# pEC50, pKi: −log10 of the molar value. The source made the active and inactive calls. The rule behind the calls is not given here.
# How the values were obtained:
# Canis familiaris = assay: Increase of peak urethral pressure in iv dosed anesthetized dog stress urinary incontinence model; assay type: functional, organism-based; settings: Canis lupus familiaris; Urethra
# [1] = molecular target: T1, 5-hydroxytryptamine receptor 2B (Homo sapiens, UniProt P41595); assay: Agonist activity at human 5HT2B receptor expressed in CHO-K1 cells assessed as increase of fluorescence based calcium mobilization at 10 uM by FLIPR assay relative to control; assay type: functional, cell-based
# T1 sequence (P41595 whole entry): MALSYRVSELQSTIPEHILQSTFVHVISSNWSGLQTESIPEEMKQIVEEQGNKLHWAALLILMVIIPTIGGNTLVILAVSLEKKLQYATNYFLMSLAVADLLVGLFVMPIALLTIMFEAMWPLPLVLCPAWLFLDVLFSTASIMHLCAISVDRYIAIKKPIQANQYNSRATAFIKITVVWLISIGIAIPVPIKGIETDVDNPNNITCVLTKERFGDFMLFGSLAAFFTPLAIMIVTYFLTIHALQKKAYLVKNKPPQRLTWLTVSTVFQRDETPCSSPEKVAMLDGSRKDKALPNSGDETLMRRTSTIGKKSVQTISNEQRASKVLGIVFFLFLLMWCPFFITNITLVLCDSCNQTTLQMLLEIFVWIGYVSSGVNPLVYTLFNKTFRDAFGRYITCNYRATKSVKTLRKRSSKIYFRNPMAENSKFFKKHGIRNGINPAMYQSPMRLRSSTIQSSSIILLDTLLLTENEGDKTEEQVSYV
# [2] = molecular target: 5-hydroxytryptamine receptor 2A (Homo sapiens) (UniProt P28223); assay: Agonist activity at human recombinant 5HT2A receptor expressed in Swiss mouse 3T3 cells increase of fluorescence based calcium mobilization by FLIPR assay relative to control; assay type: functional, cell-based; settings: NIH3T3
# Chain of 5-hydroxytryptamine receptor 2A (Homo sapiens) (P28223 whole entry): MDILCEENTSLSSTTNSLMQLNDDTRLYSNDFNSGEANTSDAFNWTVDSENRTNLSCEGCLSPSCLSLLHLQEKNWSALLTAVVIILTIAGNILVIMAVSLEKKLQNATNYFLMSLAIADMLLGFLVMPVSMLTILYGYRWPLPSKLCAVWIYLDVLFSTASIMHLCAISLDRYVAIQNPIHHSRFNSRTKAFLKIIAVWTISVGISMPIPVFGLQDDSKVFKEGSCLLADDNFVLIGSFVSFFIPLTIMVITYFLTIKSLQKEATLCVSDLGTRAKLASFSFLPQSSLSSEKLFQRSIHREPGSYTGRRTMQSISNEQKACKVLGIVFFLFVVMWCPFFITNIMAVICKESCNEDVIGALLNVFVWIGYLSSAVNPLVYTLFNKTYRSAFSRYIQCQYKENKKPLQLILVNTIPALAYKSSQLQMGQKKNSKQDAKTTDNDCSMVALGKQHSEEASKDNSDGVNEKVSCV
# [3] = molecular target: T1, 5-hydroxytryptamine receptor 2B; assay: Agonist activity at human recombinant 5HT2B receptor expressed in Swiss mouse 3T3 cells assessed as increase of fluorescence based calcium mobilization at 10 uM by FLIPR assay; assay type: functional, cell-based; settings: NIH3T3
# [4] = Binding affinity to sodium channel site 2 at 10000 nM
# [5] = Binding affinity to L-type calcium channel diltiazem binding site at 10000 nM
# [6] = Binding affinity to L-type calcium channel verapamil binding site at 10000 nM
# [7] = Binding affinity to L-type Ca2+ channel dihydropyridine binding site at 10000 nM
# [8] = molecular target: T2, Muscarinic acetylcholine receptor M1 (Homo sapiens) (UniProt P11229); assay: Agonist activity at human muscarinic M1 receptor up to 10 uM; assay type: functional
# T2 sequence (whole entry): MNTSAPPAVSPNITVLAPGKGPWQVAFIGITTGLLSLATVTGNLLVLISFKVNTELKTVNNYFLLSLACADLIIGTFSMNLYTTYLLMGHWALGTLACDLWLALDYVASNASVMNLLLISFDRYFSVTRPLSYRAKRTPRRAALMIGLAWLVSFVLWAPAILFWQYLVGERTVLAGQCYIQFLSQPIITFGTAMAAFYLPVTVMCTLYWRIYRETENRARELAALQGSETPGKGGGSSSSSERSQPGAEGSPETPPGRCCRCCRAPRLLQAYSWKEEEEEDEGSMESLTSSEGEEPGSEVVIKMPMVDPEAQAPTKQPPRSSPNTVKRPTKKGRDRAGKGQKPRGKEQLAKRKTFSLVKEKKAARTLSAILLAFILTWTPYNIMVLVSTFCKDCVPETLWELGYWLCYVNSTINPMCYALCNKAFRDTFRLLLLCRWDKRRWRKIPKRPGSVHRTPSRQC
# [9] = molecular target: T3, Muscarinic acetylcholine receptor M5 (Homo sapiens) (UniProt P08912); assay: Agonist activity at human muscarinic M5 receptor up to 10 uM; assay type: functional
# T3 sequence (whole entry): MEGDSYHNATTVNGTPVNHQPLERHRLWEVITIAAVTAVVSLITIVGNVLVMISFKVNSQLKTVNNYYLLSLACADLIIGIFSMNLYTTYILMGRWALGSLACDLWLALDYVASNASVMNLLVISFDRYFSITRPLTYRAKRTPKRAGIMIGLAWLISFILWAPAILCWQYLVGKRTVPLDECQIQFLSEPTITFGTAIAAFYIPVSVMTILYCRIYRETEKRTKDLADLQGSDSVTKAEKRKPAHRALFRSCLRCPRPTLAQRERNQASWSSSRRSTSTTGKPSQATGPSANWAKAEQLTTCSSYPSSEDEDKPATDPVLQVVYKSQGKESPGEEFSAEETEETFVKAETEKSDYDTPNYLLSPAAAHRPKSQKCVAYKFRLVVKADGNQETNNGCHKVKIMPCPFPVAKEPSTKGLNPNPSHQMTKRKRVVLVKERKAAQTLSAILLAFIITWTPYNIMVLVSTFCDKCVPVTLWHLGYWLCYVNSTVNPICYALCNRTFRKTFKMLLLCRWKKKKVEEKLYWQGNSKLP
# [10] = molecular target: Voltage-gated sodium channel type V alpha polypeptide (Oryctolagus cuniculus) (UniProt Q2MZF0); assay: Inhibition of Nav1.5 in rabbit cardiac myocytes up to 100 uM; assay type: cell-based
# [11] = molecular target: T4, 5-hydroxytryptamine receptor 2C (Canis lupus familiaris) (UniProt Q60F97); assay: Agonist activity at dog 5HT2C receptor ralative to control; assay type: functional
# T4 sequence (whole entry): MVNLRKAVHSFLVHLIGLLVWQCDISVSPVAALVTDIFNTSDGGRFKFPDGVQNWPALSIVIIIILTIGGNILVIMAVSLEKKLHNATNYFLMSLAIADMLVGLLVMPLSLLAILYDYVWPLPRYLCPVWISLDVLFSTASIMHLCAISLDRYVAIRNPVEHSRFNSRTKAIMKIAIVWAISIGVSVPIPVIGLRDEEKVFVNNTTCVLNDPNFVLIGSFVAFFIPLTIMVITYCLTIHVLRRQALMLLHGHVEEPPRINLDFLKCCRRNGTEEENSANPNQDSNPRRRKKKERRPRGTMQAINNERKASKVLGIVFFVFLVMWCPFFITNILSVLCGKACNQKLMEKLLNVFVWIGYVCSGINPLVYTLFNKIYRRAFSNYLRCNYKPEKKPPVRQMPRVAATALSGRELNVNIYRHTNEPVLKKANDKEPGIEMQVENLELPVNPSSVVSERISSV
# Rattus norvegicus = assay: Inhibition of 5HT2A receptor-mediated head twitches in rat at 10 mg/kg, po; assay type: functional, organism-based; design: dose 10 mg/kg
# [12] = molecular target: 5-hydroxytryptamine receptor 2A (Canis lupus familiaris) (UniProt O46635); assay: Agonist activity at 5HT2A receptor in dog femoral artery relative to control; assay type: functional, tissue-based
# Chain of 5-hydroxytryptamine receptor 2A (Canis lupus familiaris) (O46635 whole entry): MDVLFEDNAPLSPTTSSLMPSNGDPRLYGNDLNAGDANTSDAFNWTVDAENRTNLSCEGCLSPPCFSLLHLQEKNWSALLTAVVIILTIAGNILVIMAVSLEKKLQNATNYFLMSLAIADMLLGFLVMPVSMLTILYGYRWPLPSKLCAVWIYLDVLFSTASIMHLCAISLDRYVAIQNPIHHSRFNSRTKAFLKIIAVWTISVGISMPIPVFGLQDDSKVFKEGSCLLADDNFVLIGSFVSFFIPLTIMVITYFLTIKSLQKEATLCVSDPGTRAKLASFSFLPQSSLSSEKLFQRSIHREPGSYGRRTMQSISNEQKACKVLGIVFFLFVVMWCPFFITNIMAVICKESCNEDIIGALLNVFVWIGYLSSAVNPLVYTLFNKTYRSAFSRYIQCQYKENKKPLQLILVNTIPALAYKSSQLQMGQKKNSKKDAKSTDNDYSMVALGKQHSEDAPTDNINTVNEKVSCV
# [13] = molecular target: T5, 5-hydroxytryptamine receptor 2C (Homo sapiens) (UniProt P28335); assay: Agonist activity at human 5HT2C receptor expressed in CHO-K1 cells assessed as increase of fluorescence based calcium mobilization at 10 uM by FLIPR assay relative to control; assay type: functional, cell-based
# T5 sequence (whole entry): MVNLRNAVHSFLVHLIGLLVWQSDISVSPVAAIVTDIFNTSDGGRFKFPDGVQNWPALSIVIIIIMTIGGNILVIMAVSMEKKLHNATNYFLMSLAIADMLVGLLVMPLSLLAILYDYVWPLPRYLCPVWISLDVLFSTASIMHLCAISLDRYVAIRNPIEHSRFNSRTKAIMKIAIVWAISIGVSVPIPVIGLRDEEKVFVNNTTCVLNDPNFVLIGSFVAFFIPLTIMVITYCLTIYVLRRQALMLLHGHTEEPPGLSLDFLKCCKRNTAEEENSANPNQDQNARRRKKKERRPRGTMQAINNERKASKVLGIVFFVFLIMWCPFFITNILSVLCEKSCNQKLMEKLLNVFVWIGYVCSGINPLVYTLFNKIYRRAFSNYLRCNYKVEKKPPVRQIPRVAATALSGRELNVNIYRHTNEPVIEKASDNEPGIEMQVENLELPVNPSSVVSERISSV
# [14] = molecular target: T5, 5-hydroxytryptamine receptor 2C (Homo sapiens); assay: Agonist activity at human 5HT2C receptor expressed in CHO-K1 cells assessed as increase of fluorescence based calcium mobilization by FLIPR assay relative to control; assay type: functional, cell-based
# [15] = molecular target: T6, 5-hydroxytryptamine receptor 2C (Homo sapiens, UniProt P28335); assay: Agonist activity at human 5HT2C receptor expressed in CHO-K1 cells assessed as increase of fluorescence based calcium mobilization by FLIPR assay; assay type: functional, cell-based
# T6 sequence (P28335 whole entry): T5 sequence (whole entry)
# [16] = molecular target: T6, 5-hydroxytryptamine receptor 2C; assay: Agonist activity at human 5HT2C receptor expressed in Swiss mouse 3T3 cells with low expression increase of fluorescence based calcium mobilization by FLIPR assay; assay type: functional, cell-based
# [17] = molecular target: T5, 5-hydroxytryptamine receptor 2C (Homo sapiens); assay: Agonist activity at human recombinant 5HT2C receptor expressed in Swiss mouse 3T3 cells with low expression increase of fluorescence based calcium mobilization by FLIPR assay relative to control; assay type: functional, cell-based; settings: NIH3T3
# [18] = molecular target: T1, 5-hydroxytryptamine receptor 2B; assay: Agonist activity at human 5HT2B receptor expressed in CHO-K1 cells assessed as increase of fluorescence based calcium mobilization by FLIPR assay; assay type: functional, cell-based
# [19] = molecular target: T1, 5-hydroxytryptamine receptor 2B; assay: Agonist activity at human 5HT2B receptor expressed in CHO-K1 cells assessed as increase of fluorescence based calcium mobilization by FLIPR assay relative to control; assay type: functional, cell-based
# [20] = molecular target: T5, 5-hydroxytryptamine receptor 2C (Homo sapiens); assay: Agonist activity at human 5HT2C receptor expressed in HEK293 cells assessed as 5-HT-induced maximum response by inositol phosphate accumulation assay; assay type: functional, cell-based
# [21] = Aqueous solubility of the compound at pH 1.5 to 11.7; assay type: physicochemical; settings: buffer
# [22] = Chemical stability of compound at pH 1 to 12; assay type: physicochemical; settings: buffer
# [23] = molecular target: T6, 5-hydroxytryptamine receptor 2C; assay: Displacement of [3H][…] from human 5HT2C receptor expressed in Swiss mouse 3T3 cells by scintillation proximity assay; assay type: cell-based, NIH3T3
compound,measurement,setting,value
c1ccc(Cc2ncc3c(n2)CCNCC3)cc1,Activity,Canis familiaris,Dose-dependent effect
same,Emax,[1],33%
same,Emax,[2],82%
same,Emax,[3],33%
same,inhibition,[4],< 20%
same,inhibition,[5],< 20%
same,inhibition,[6],< 20%
same,inhibition,[7],< 20%
same,Activity,[8],inactive
same,Activity,[9],inactive
same,Activity,[10],inactive
same,Activity,[11],81%
same,inhibition,Rattus norvegicus,inactive
same,Emax,[12],51%
c1ccc(Cc2ncc3c(n2)CCNC3)cc1,Emax,[13],64%
c1ccc(CCc2ncc3c(n2)CNCC3)cc1,Activity,[14],inactive
c1ccc(CCc2ncc3c(n2)CCNCC3)cc1,pEC50,[15],6.96
same,Emax,[14],99%
same,pEC50,[16],5.32
same,Emax,[17],40%
Fc1cccc(Cc2ncc3c(n2)CCNCC3)c1,Emax,[14],67%
same,pEC50,[18],6.74
same,Emax,[19],66%
c1ccc(-c2ncc3c(n2)CCNCC3)cc1,Activity,[14],inactive
C[C@H]1CNCCc2ccc(Cl)cc21,Emax,[14],84%
same,Emax,[20],100%
same,Activity,[11],82%
Cc1cccc(Cc2ncc3c(n2)CCNCC3)c1,Emax,[14],84%
same,pEC50,[18],6.39
same,Emax,[19],62%
Cc1ccccc1Cc1ncc2c(n1)CCNCC2,Emax,[14],70%
same,pEC50,[18],5.92
same,Emax,[19],56%
FC(F)(F)c1cccc(Cc2ncc3c(n2)CCNCC3)c1,Emax,[14],44%
same,pEC50,[18],6.80
same,Emax,[19],63%
Clc1cccc(Cc2ncc3c(n2)CCNCC3)c1,Emax,[14],56%
same,pEC50,[18],7.52
same,Emax,[19],50%
O=C(O)/C=C/C(=O)O.c1ccc(Cc2ncc3c(n2)CCNCC3)cc1,solubility,[21],> 10000 µg/mL
same,Stability,[22],Stable
Clc1ccccc1Cc1ncc2c(n1)CCNCC2,Emax,[13],38%
same,pKi,[23],5.73
same,pEC50,[18],6.75
same,Emax,[19],36%
Fc1ccccc1Cc1ncc2c(n1)CCNCC2,Emax,[14],65%
same,pEC50,[18],6.66
same,Emax,[19],43%
c1ccc(-c2ncc3c(n2)CCNC3)cc1,Activity,[14],inactive
c1ccc(-c2ncc3c(n2)CNCC3)cc1,pEC50,[15],6.42
same,Emax,[14],92%
c1ccc(CCc2ncc3c(n2)CCNC3)cc1,Emax,[13],50%
Clc1ccc(Cc2ncc3c(n2)CCNCC3)cc1,Emax,[14],65%
same,pEC50,[18],7.22
same,Emax,[19],62%
c1ccc(CCCc2ncc3c(n2)CCNC3)cc1,pEC50,[15],5.72
same,Emax,[14],100%
c1ccc(CCCc2ncc3c(n2)CNCC3)cc1,Activity,[14],inactive
c1ccc(Cc2ncc3c(n2)CNCC3)cc1,Emax,[13],27%
Fc1ccc(Cc2ncc3c(n2)CCNCC3)cc1,Emax,[14],60%
same,pEC50,[18],6.21
same,Emax,[19],90%
Cc1ccc(Cc2ncc3c(n2)CCNCC3)cc1,Emax,[14],63%
same,pEC50,[18],6.79
same,Emax,[19],80%
FC(F)(F)c1ccccc1Cc1ncc2c(n1)CCNCC2,Emax,[13],15%
same,Emax,[1],15%
